Source: patent publication US20090318342A1, “Compounds” (IMPERIAL INNOVATIONS LIMITED, priority 2005, published 2009)

How the values were obtained:
[1] = target: soluble form of TACE (TACE R651) (Homo sapiens, UniProt P78536); experiment: Enzyme inhibition kinetic study, TACE; format: biochemical; details: 0.5 nM TACE, pH 9.0, 1 mM NaCl; for Inhibition of TACE activity (in words): FIG. 2B
Protocol: FIG. 2. Inhibition of MMP and TACE by N-TIMP-3 and its mutants. A. Inhibition of MMP-14(CD) by wild-type and mutated N-TIMP-3. Open circles, wild-type N-TIMP-3; closed circles, T2G; and open squares, -1A. B. Comparison of the inhibition of TACE by wild-type N-TIMP-3, N-TIMP-1 and TAPI-2. The inhibitors were incubated with 0.5 nM TACE for 3 hr at room temperature, and the residual enzyme activity was measured with 10 μM Substrate III (R&D Systems). […] Open circles, N-TIMP-3; closed circles, TAPI-2; and open squares, N-TIMP-1. C. Inhibition of TACE (0.5 nM) by wild-type and mutated N-TIMP-3. Open circles, wild-type inhibitor; closed circles, T2G; and open squares, -1A.
Enzyme inhibition kinetic studies—Inhibition kinetic studies for MMPs and TACE were carried out as described previously (19, 27) with modifications. Purified N-TIMP-3 and mutants were dialyzed against 20 mM Tris-HCl (pH 7.0), 50 mM NaCl containing 20% glycerol, centrifuged at 14,000 rpm for 10 min to remove any precipitate, and protein concentration was re-measured before conducting inhibition assays. Since NaCl inhibits the activity of the TACE ectodomain in vitro (28), we adjusted the final concentration of NaCl to 1 mM in all assays with TACE. Equal volumes (10% of total assay volume) of diluted solutions of N-TIMP-3 and mutants were added to TACE assays, resulting in a final pH of 8.8.
where v is the experimentally determined reaction velocity, v0 is the uninhibited activity, E is enzyme concentration, I is inhibitor concentration, K is the apparent inhibition constant (Ki^(app)) and h is the Hill coefficient.
The inhibitory activities of the mutants were also compared with that of wild-type N-TIMP-3 against a soluble form of TACE in which the transmembrane and C-terminal cytoplasmic domains are deleted (TACE R651; (28)). […] The inhibition curve of TACE by wild-type N-TIMP-3 is sigmoid, in striking contrast with the inhibition by TAPI-2 and with the inhibition of MMPs by N-TIMP-3 and N-TIMP-1 (FIGS. 2A, 2B; (31)). Sigmoid inhibition curves were also obtained for TACE with the T2G and -1A mutants of N-TIMP-3 (FIG. 2C).

THP-1 cells = experiment: Inhibition of TNF-α shedding from THP-1 cells (ELISA); format: cell-based, human; details: 100 ng/ml PMA, 6 h, 50 to 500 nM
Protocol: FIG. 3. Effects of mutations in N-TIMP-3 on inhibition of cellular shedding of TNF-α. THP-1 cells (2.5×10^6/ml) growing in serum-free RPMI-1640 medium were stimulated with 100 ng/ml PMA for 20 min before adding various concentrations of N-TIMP-3 (wild-type and mutants). Cells were allowed to grow for another 6 hr and conditioned media were collected for the ELISA assays.
Inhibition of TNF-α shedding from THP-1 cells—All TIMP solutions were dialyzed against 20 mM Tris-HCl (pH 7.0), 150 mM NaCl and 20% glycerol before use. Human monocyte THP-1 cells cultured in RPMI-1640 medium supplemented with 5% fetal calf serum were harvested, extensively washed and reseeded into serum-free medium at 2.5×10^6 cells/ml. […] The amount of soluble TNF-α released into the medium was measured using sandwich enzyme-linked immunosorbent assay, as described by Engelberts et al. (30) with modifications. The released TNF-α was absorbed to microtiter plates coated with mouse monoclonal anti-human TNF-α antibody BD551220 (1:200 dilution), and the bound TNF-α was detected using biotinylated mouse monoclonal anti-human TNF-α: antibody BD554511 (1:500 dilution) and streptavidin conjugated with horse radish peroxidase, and 3,3′,5,5′-tetramethylbenzidine as peroxidase substrate (KPL, Guildford, UK). The plates were read at 450 nm with an ELX808 plate reader (BIO-TEK Instruments Inc). […]

[2] = system: bovine nasal cartilage explants; experiment: IL-1α-stimulated bovine nasal cartilage explants, GAG release; format: cell-based; details: 3 days
Protocol: (§1) GAG released into the conditioned media is measured in duplicate using a modification of the dimethylmethylene blue (DMMB) assay as described in Farndale et al.. Shark chondroitin sulfate (0-2.62 μg) is used as standard. The % of total GAG released into the medium is calculated as follows: % of total GAG released=(total GAG in the medium)/(total GAG in the medium+total GAG remaining in the cartilage).
Bovine nasal cartilage explants were stimulated with IL-1α in the presence or absence of N-TIMP-1, TIMP-2, or N-TIMP-3 for 3 days.

[3] = system: porcine articular cartilage; experiment: Retinoic acid-stimulated porcine articular cartilage, GAG release; format: cell-based
Protocol: Porcine articular cartilage from the metacarpophalangeal joints of 3-9 month old pigs is dissected into small shavings approximately 3 mm long and 2-3 mm wide. After dissection, the cartilage is allowed to rest for 24 h at 37° C. under 5% CO2 in DMEM containing penicillin-streptomycin, amphotericin B, and 5% fetal calf serum. The medium is then replaced with fresh media and the cartilage is rested for a further 24-48 h. Each cartilage piece is then placed in one well of a round bottom 96-well plate with 200 μl of serum-free DMEM with or without 10-100 ng/ml IL-1α or 1 μM retinoic acid and various concentrations of each TIMP-3 mutant. After 3 days, all of the conditioned media are harvested and stored at −20° C. until use.
as §1

[4] = system: aggrecanase activity in IL-1α- and retinoic acid-stimulated cartilage; experiment: Aggrecanase-generated aggrecan fragments in cartilage conditioned media, Western analysis; format: cell-based; details: 1 μM
Text: Aggrecan fragments released into the conditioned medium are deglycosylated by digestion with chondroitinase ABC and keratanase and the samples are subjected to SDS/PAGE and Western blotting analysis as described by Little et al.. The primary antibodies used to detect aggrecanase-generated and MMP-generated aggrecan fragments are BC-3 and BC-14, respectively. Antigen-antibody complexes are detected by anti-mouse AP-linked donkey antibody and the AP substrate.
Conditioned media from the above experiments were analyzed by monoclonal antibodies that recognize either the aggrecanase-generated aggrecan neoepitope ARGSV or the MMP-generated aggrecan neoepitope FFGVG. In concordance with GAG release, there was an increase in the amount of aggrecanase-generated aggrecan fragments released upon treatment with either stimulus, but no MMP-generated fragments were detected.

[5] = system: porcine articular cartilage; experiment: IL-1α-stimulated porcine articular cartilage degradation, GAG release (DMMB); format: cell-based; details: IL-1α 10 ng/ml, 3 days
Protocol: FIG. 7. Inhibition of IL-1a stimulated porcine articular cartilage degradation by N-terminal mutants of N-TIMP-3. Porcine articular cartilage pieces were cultured for three days. Cartilage was stimulated with IL-1α (10 ng/ml) with TIMPs at the concentrations indicated. Glycosaminoglycan (GAG) release in the media was measured by dimethyl methylene blue (DMMB).
Porcine articular cartilage from the metacarpophalangeal joints of 3-9 month old pigs is dissected into small shavings approximately 3 mm long and 2-3 mm wide. After dissection, the cartilage is allowed to rest for 24 h at 37° C. under 5% CO2 in DMEM containing penicillin-streptomycin, amphotericin B, and 5% fetal calf serum. The medium is then replaced with fresh media and the cartilage is rested for a further 24-48 h. […]
as §1, with “Shark chondroitin sulfate (0-2.62 μg) is used as standard.” left out
Porcine articular cartilage pieces were cultured for 3 days. […] Glycosaminoglycan (GAG) release in the media was measured by dimethyl methylene blue (DMMB).

soluble form of TACE (TACE R651), sequence (P78536 215-651): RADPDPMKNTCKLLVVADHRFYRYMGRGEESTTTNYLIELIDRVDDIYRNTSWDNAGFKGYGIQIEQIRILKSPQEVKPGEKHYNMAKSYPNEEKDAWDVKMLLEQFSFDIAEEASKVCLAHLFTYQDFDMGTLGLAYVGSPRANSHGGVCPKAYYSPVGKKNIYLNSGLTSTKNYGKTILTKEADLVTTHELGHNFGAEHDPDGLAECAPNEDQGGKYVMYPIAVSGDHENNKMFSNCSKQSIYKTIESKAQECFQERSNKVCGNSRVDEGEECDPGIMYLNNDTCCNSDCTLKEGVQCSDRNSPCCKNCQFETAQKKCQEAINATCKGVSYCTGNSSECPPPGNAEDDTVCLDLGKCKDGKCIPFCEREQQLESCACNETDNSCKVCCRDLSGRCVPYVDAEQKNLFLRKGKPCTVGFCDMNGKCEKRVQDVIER

Row | Inhibition of TACE activity (in words) [1] | h (Hill coefficient) for TACE inhibition ([1]; Table II, fit with equation 3) | Ki ([1]; Table II, fit with equation 3, read-out: Ki(app) TACE) [nM] | Compound | Inhibition of PMA-stimulated release of TNF-α (THP-1 cells) | Inhibition of IL-1α-stimulated GAG release [2] | Inhibition of retinoic acid-stimulated GAG release [3] | Release of aggrecanase-generated aggrecan fragments [4] | Inhibition of IL-1α stimulated cartilage degradation (GAG release) [5]
1 | minimal inhibitory activity |  |  | N-TIMP-1: N-terminal inhibitory domain of TIMP-1, expressed in E. coli and folded in vitro [reference compound] | no effect | not effective even at the concentration of 1 μM | did not inhibit | not effective | 
2 | effectively inhibited | 1 | 4.28 ± 0.001 | CC(C)CC(CC(=O)NO)C(=O)NC(C(=O)NC(C)C(=O)NCCN)C(C)(C)C (stereo not drawn) [TAPI-2, HONHCOCH2CH(CH2CH(CH3)2)—CO-t-Butyl-Gly-Ala-NHCH2CH2NH2, reference compound] |  |  |  |  | 
3 |  |  |  | TIMP-1: tissue inhibitor of metalloproteinases-1 [reference compound] |  |  |  |  | did not
